# According to paper PMC11073699, “Odorant receptors for floral- and plant-derived volatiles in the yellow fever mosquito, Aedes aegypti (Diptera: Culicidae)” (PLOS ONE, 2024):
# Values joined by “and” are separate entries in the source; they are usually repeats but may differ in a detail not shown here. Identical values can stand only once.
# Assays:
# Assay type in all cases: cell-based
# AaegOR11 = target: T1, AaegOR11 (Aedes aegypti, UniProt Q16PN4); assay: Two-electrode voltage clamp of Xenopus laevis oocytes expressing AaegOR11/Orco (blends, unitary compounds, concentration-response); settings: for Normalized response, Average, unitary compounds of blend Terpenes 3: average over oocytes (9; fenchones 6); for Raw data (Responses in nA), unitary compounds of blend Terpenes 3: individual oocytes 1-9 (replicates); for Normalized response, unitary compounds of blend Terpenes 3: individual oocytes, normalized to cis-Decahydro-1-napthol = 100; for Raw Data (Responses in nA), concentration-response: oocytes 1-9
# T1 sequence (Q16PN4 1-420): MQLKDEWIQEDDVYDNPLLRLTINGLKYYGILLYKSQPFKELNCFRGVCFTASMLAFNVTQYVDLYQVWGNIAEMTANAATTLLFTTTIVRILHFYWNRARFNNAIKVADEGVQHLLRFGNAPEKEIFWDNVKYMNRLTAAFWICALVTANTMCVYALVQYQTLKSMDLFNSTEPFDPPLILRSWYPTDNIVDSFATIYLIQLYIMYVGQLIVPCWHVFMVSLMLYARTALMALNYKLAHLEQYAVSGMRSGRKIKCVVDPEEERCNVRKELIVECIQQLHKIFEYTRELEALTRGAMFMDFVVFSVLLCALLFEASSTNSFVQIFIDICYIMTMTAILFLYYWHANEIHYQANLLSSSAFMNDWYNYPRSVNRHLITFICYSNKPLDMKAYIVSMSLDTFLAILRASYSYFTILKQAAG
# T1 sequence (Q178U6 1-478 partner): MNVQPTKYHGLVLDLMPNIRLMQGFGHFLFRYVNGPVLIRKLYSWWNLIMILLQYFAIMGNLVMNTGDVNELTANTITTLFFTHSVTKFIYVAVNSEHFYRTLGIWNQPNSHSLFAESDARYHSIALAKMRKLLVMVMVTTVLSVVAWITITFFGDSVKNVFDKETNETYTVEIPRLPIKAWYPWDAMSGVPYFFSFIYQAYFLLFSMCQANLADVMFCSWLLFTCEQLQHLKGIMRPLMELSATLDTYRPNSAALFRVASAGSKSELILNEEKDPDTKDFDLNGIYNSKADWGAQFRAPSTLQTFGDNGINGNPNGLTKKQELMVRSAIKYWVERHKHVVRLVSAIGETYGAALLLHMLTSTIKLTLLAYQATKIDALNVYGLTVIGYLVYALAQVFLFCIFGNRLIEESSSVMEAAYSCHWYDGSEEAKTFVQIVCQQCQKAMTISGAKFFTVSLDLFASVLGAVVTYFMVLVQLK
# Description: (§1) The coding regions of ten AaegOR genes of interest (S3 File) and AaegOrco were synthesized by Twist Bioscience (San Francisco, CA, USA) and cloned into the pENTR plasmid. The Gateway LR directional cloning system (Invitrogen Corp., Carlsbad, CA, USA) was utilized to subclone AaegOR coding regions into the pSP64t-RFA oocyte expression plasmid. Plasmids were purified using the GeneJet Plasmid Miniprep Kit (ThermoFisher Scientific, Waltham, MA, USA). Purified plasmids were sequenced in both directions to confirm coding regions.
# (§2) Chemical compounds (S6 File) used in the deorphanization of AaegORs were purchased from Acros Organics (Morris, NJ, USA), Alfa Aesar (Ward Hill, MA, USA), and ThermoFisher Scientific (Waltham, MA, USA) at the highest purity available. Compounds were stored as 1M stocks in 100% DMSO. Serial dilutions of each compound were prepared in 10% DMSO and blended by chemical class.
# (§3) pSP64t-RFA: AaegOR clones were linearized using Xbal, and cRNAs were synthesized using the mMESSAGE mMACHINE ® SP6 kit (Life Technologies, Carlsbad, CA, USA). Xenopus laevis stage V-VII oocytes purchased from Xenopus1 (Dexter, MI, USA) were stored at 18°C in Incubation medium (ND96 96 with 5% dialyzed horse serum, 50μg/mL gentamycin, 100μg/mL streptomycin, 100μg/mL penicillin, and 550μg/mL sodium pyruvate). 30nL of cRNA was injected into multiple oocytes using a microinjection syringe pump (World Precision Instruments, Sarasota, FL, USA) maintained at 18°C for 48–72 hrs. Odorant blends were perfused across individual oocytes for 10–15 seconds, held at a resting membrane potential of -80 mV using an OC-725C oocyte clamp (Warner Instruments, LLC, Hamden, CT, USA). Induced currents were measured indirectly using the two-electrode voltage clamp technique (TEVC). Following each stimulus, currents were allowed to return to baseline before further stimulation. Data was captured using the Digidata 1550 B digitizer and PClamp10 software (Molecular Devices, San Jose, CA, USA). Concentration-response curves were generated by perfusing unitary odorants over oocytes at increasing concentrations from [10^-3M] to [10^-9M]. Data were analyzed using GraphPad Prism 8 (GraphPad Software Inc., La Jolla, CA, USA). At least two biological replicates were conducted at each concentration and for each compound. Data for at least seven oocytes responding to each compound was analyzed (S7 File).
# AaegOR15 = target: T2, AaegOR15 (Aedes aegypti, UniProt A0A6B9QIR2); assay: Two-electrode voltage clamp of Xenopus laevis oocytes expressing AaegOR15/Orco (blends, unitary compounds, concentration-response); settings: unitary compounds of Alcohols 2; individual oocytes 1-10 (replicates)
# T2 sequence (A0A6B9QIR2 1-390): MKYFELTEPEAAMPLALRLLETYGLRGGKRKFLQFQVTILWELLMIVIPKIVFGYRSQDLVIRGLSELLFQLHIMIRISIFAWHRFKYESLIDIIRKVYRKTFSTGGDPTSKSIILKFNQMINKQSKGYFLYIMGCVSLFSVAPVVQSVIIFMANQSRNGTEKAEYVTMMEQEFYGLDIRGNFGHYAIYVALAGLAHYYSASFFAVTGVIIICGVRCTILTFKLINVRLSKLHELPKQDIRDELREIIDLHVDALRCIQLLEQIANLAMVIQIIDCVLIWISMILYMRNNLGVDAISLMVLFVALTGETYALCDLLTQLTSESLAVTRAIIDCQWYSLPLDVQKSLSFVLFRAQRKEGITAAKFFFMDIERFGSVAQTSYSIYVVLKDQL
# T2 sequence (Q178U6 1-478 partner): T1 sequence (Q178U6 1-478 partner)
# Description: as §1, §2, §3
# AaegOR8 = target: T3, AaegOR8 (Aedes aegypti, UniProt Q16MN0); assay: Two-electrode voltage clamp of Xenopus laevis oocytes expressing AaegOR8/Orco (blends, unitary compounds, concentration-response); settings: Alcohols 2 unitary compounds
# T3 sequence (Q16MN0 32-422): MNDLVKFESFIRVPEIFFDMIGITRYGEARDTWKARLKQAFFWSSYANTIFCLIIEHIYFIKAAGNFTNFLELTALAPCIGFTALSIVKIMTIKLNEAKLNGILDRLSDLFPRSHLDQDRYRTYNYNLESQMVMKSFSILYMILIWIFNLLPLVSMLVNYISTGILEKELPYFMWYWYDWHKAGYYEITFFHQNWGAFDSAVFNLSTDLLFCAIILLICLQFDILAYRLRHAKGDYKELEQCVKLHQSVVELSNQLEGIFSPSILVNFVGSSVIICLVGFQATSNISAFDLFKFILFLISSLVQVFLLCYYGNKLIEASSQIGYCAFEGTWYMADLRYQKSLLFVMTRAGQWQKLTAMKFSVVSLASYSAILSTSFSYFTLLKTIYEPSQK
# T3 sequence (Q178U6 1-478 partner): T1 sequence (Q178U6 1-478 partner)
# Description: as §1, §2, §3
smiles,measurement,setting,value
CC(=O)OCCC(C)C [Isomyl acetate],"Normalized response, Average, unitary compounds of blend Terpenes 3",AaegOR11,0.0
same,"Raw data (Responses in nA), unitary compounds of blend Terpenes 3",AaegOR11,0 nA
same,"Normalized response, unitary compounds of blend Terpenes 3",AaegOR11,0.0
CC(C)=CCC/C(C)=C\CO [Nerol],"Raw data (Responses in nA), unitary compounds of blend Terpenes 3",AaegOR11,0 nA
C=C1CCC2(C(C)C)CC12 (stereo not drawn) [Sabiene],"Normalized response, Average, unitary compounds of blend Terpenes 3",AaegOR11,0.556
same,"Raw data (Responses in nA), unitary compounds of blend Terpenes 3",AaegOR11,0 nA (8×) and 5 nA
same,"Normalized response, unitary compounds of blend Terpenes 3",AaegOR11,0.0 (8×) and 5.0
C=C1CC/C=C(\C)CC[C@@H]2[C@@H]1CC2(C)C [beta-caryophyllene],"Raw data (Responses in nA), unitary compounds of blend Terpenes 3",AaegOR11,10 nA (2×) and 0 nA (6×) and 20 nA
"OC1CCCC2CCCCC12 (stereo not drawn) [cis-decahydro-1-napthol, cis-Decahydro-1-napthol]","Raw Data (Responses in nA), concentration-response",AaegOR11; 1e-6 M,10.0 nA
same,"Raw Data (Responses in nA), concentration-response",AaegOR11; 5e-6 M,15.0 nA and 10.0 nA and 20.0 nA
same,"Raw Data (Responses in nA), concentration-response",AaegOR11; 1e-5 M,15.0 nA and 10.0 nA
same,"Raw Data (Responses in nA), concentration-response",AaegOR11; 0.0005 M,90.0 nA and 60.0 nA and 100.0 nA and 50.0 nA and 65.0 nA
same,"Raw Data (Responses in nA), concentration-response",AaegOR11; 0.001 M,70.0 nA and 40.0 nA and 80.0 nA and 60.0 nA and 45.0 nA
same,EC50,"AaegOR11; AaegOR11/Orco expressing oocytes, TEVC, concentration-response of normalized current",~68.4 µM and 68.4 µM
same,magnitude of response of AaegOR11 to unitary compounds,"AaegOR11; AaegOR11/Orco expressing oocytes, TEVC, individual compounds",greater magnitude of response than (-)-fenchone or (+)-fenchone
same,"Raw data (Responses in nA), unitary compounds of blend Terpenes 3",AaegOR11,70 nA and 100 nA and 30 nA (2×) and 40 nA (2×) and 85 nA and 150 nA and 110 nA
same,"Raw data (Responses in nA), unitary compounds, additional oocytes",AaegOR11; six further oocytes in columns without head (fenchone comparison with cis-Decahydro-1-napthol),20 nA
CC12CCC(C1)C(C)(C)C2=O (stereo not drawn) [fenchone],Secondary Ligand,"AaegOR11; AaegOR11, secondary ligand identified during the functional characterizations",fenchone
CCC/C=C/C=O [trans-2-hexenal],"Raw data (Responses in nA), compounds of blend Alcohols 2",AaegOR15,0.0 nA and 15.0 nA and 30.0 nA (2×) and 10.0 nA and 40.0 nA (2×) and 50.0 nA (2×) and 60.0 nA
same,Raw data (Responses in nA) Oocyte 1,AaegOR8; oocyte 1,0.0 nA
same,Raw data (Responses in nA) Oocyte 2,AaegOR8; oocyte 2,0.0 nA
same,Raw data (Responses in nA) Oocyte 3,AaegOR8; oocyte 3,0.0 nA
same,Raw data (Responses in nA) Oocyte 4,AaegOR8; oocyte 4,0.0 nA
same,Raw data (Responses in nA) Oocyte 5,AaegOR8; oocyte 5,0.0 nA
same,Raw data (Responses in nA) Oocyte 6,AaegOR8; oocyte 6,0.0 nA
same,Raw data (Responses in nA) Oocyte 7,AaegOR8; oocyte 7,0.0 nA
same,Raw data (Responses in nA) Oocyte 8,AaegOR8; oocyte 8,0.0 nA
